According to ChEMBL document CHEMBL5137110, “Production of Multiple Talaroenamines from Penicillium malacosphaerulum via One-Pot/Two-Stage Precursor-Directed Biosynthesis” (J Nat Prod, 2022):
pIC50: −log10 of the molar value. Converted amounts (≈) assume the structure as drawn. Structures can show the parent of a compound that is named as a salt.

Experiments:
K562 = assay: Cytotoxicity against human K562 cells assessed as reduction in cell viability by MTT assay; assay type: functional, cell-based
L02 = assay: Cytotoxicity against human L02 cells assessed as reduction in cell viability by SRB assay; assay type: functional, cell-based
H69AR = assay: Cytotoxicity against human H69AR cells assessed as reduction in cell viability by SRB assay; assay type: functional, cell-based
ASPC1 = assay: Cytotoxicity against human ASPC1 cells assessed as reduction in cell viability by SRB assay; assay type: functional, cell-based
MDA-MB-231 = assay: Cytotoxicity against human MDA-MB-231 cells assessed as reduction in cell viability by SRB assay; assay type: functional, cell-based
Escherichia coli = assay: Antibacterial activity against Escherichia coli assessed as inhibition of bacterial growth incubated for 18 to 20 hrs by agar dilution method; assay type: functional; conditions: time 18-20 hrs
Proteus = assay: Antibacterial activity against Proteus species assessed as inhibition of bacterial growth incubated for 18 to 20 hrs by agar dilution method; assay type: functional; conditions: time 18-20 hrs
Bacillus cereus = assay: Antibacterial activity against Bacillus cereus assessed as inhibition of bacterial growth incubated for 18 to 20 hrs by agar dilution method; assay type: functional; conditions: time 18-20 hrs

SMILES	pIC50 (K562)	pIC50 (L02)	pIC50 (H69AR)	pIC50 (ASPC1)	pIC50 (MDA-MB-231)	MIC (Escherichia coli) [µg/mL]	MIC (Proteus) [µg/mL]	MIC (Bacillus cereus) [µg/mL]
CC1=CC(=O)[C@@](C)(O)C(=O)/C1=C\Nc1ccc(C(=O)O)cc1	5.07	4.79	5.02	< 4.52	< 4.52	–	–	–
CC1=CC(=O)[C@@](C)(O)C(=O)/C1=C\Nc1ccc(F)cc1Br	5.55	4.68	< 4.52	< 4.52	< 4.52	–	–	–
COc1cccc2c1C(=O)c1c(O)c3c(c(O)c1C2=O)C[C@@](O)(C(=O)CO)C[C@@H]3O[C@H]1C[C@H](N)[C@H](O)[C@H](C)O1 [DOXORUBICIN HYDROCHLORIDE]	–	6.70	4.82	–	6.52	–	–	–
CC1=CC(=O)[C@@](C)(O)C(=O)/C1=C\Nc1cccc(C(N)=O)c1	5.66	4.77	< 4.52	< 4.52	< 4.52	–	–	–
CC1=CC(=O)[C@@](C)(O)C(=O)/C1=C\Nc1ccc(Cl)c(Cl)c1	–	–	–	–	–	16.3 (≈ 50 µM)	16.3 (≈ 50 µM)	16.3 (≈ 50 µM)
